Measured values reported in PMC6133161, “Thiazoles with cyclopropyl fragment as antifungal, anticonvulsant, and anti-Toxoplasma gondii agents: synthesis, toxicity evaluation, and molecular docking study” (Medicinal Chemistry Research, 2018).
Values after ≈ are worked out from the molar mass of the structure shown.

System: Toxoplasma gondii RH strain
Test: [3H]-uracil incorporation assay in VERO host cells

Nc1ccc(S(=O)(=O)Nc2ncccn2)cc1 [Sulfadiazine, reference compound]
Proliferation of Tg ± SD (1 µg/ml): 104.59 ±4.12% | Proliferation of Tg ± SD (5 µg/ml): 96.71 ±3.85% | Proliferation of Tg ± SD (25 µg/ml): 78.58 ±4.67% | Proliferation of Tg ± SD (50 µg/ml): 67.99 ±7.73% | Proliferation of Tg ± SD (125 µg/ml): 65.58 ±4.80% | Proliferation of Tg ± SD (250 µg/ml): 61.79 ±3.13% | Proliferation of Tg ± SD (500 µg/ml): 56.68 ±3.64% | Proliferation of Tg ± SD (1250 µg/ml): 45.17 ±1.03% | Proliferation of Tg ± SD (2500 µg/ml): 45.36 ±0.58% | IC50 (Toxoplasma gondii, Vero, read-out: IC50 anti-Tg): 936 µg/mL (≈ 3.74 mM)
